In ChEMBL document CHEMBL1201862, “PubChem BioAssay data set” (2004):
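Five concentrations, 48 hours, 96-well plates. GI50 is the concentration that inhibits growth by half.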 The source made the active and inactive calls. No stated cut-off is given here; in the data, active = GI50 up to about 1.1 µM and inactive = higher.

Tests used:
Assay in all cases: growth of human tumour cells (NCI), 48 h
PC-3 = tested on: PC-3
T47D = tested on: T47D
SN12C = tested on: SN12C
UACC-257 = tested on: UACC-257
A498 = tested on: A498
DU-145 = tested on: DU-145
SK-MEL-28 = tested on: SK-MEL-28
MDA-MB-435 = tested on: MDA-MB-435
CAKI-1 = tested on: CAKI-1
COLO 205 = tested on: COLO 205
HOP-62 = tested on: HOP-62
IGROV-1 = tested on: IGROV-1
HCC 2998 = tested on: HCC 2998
LOX IMVI = tested on: LOX IMVI
786-0 = tested on: 786-0
RPMI-8226 = tested on: RPMI-8226
UO-31 = tested on: UO-31
CCRF-CEM = tested on: CCRF-CEM
NCI-H23 = tested on: NCI-H23
EKVX = tested on: EKVX

| SMILES | GI50 (PC-3) | GI50 (T47D) | GI50 (SN12C) | GI50 (UACC-257) | GI50 (A498) | GI50 (DU-145) | GI50 (SK-MEL-28) | GI50 (MDA-MB-435) | GI50 (CAKI-1) | GI50 (COLO 205) | GI50 (HOP-62) | GI50 (IGROV-1) | GI50 (HCC 2998) | GI50 (LOX IMVI) | GI50 (786-0) | GI50 (RPMI-8226) | GI50 (UO-31) | GI50 (CCRF-CEM) | GI50 (NCI-H23) | GI50 (EKVX) |
| --- | --- | --- | --- | --- | --- | --- | --- | --- | --- | --- | --- | --- | --- | --- | --- | --- | --- | --- | --- | --- |
| O=[N+]([O-])c1ccc2[nH]c(=S)[nH]c(=S)c2c1 | > 100 µM (inactive) | > 100 µM (inactive) | > 100 µM (inactive) | > 100 µM (inactive) | > 100 µM (inactive) | > 100 µM (inactive) | > 100 µM (inactive) | > 100 µM (inactive) | > 100 µM (inactive) | > 100 µM (inactive) | > 100 µM (inactive) | > 100 µM (inactive) | > 100 µM (inactive) | > 100 µM (inactive) | > 100 µM (inactive) | > 100 µM (inactive) | > 100 µM (inactive) | > 100 µM (inactive) | > 100 µM (inactive) | > 100 µM (inactive) |
| COC(=O)[C@H]1C=C[C@H](OC2OC(COC(C)=O)C(OC(C)=O)C(OC(C)=O)C2OC(C)=O)n2c(=O)n(-c3ccccc3)c(=O)n21 (stereo not given in full) | 10.7 µM (inactive) | 3.48 µM (inactive) | 6.52 µM (inactive) | 7.52 µM (inactive) | 4.97 µM (inactive) | 6.08 µM (inactive) | 2.49 µM (inactive) | 4.38 µM (inactive) | 0.935 µM (active) | 1.7 µM (inactive) | 8.55 µM (inactive) | 4.98 µM (inactive) | 2.23 µM (inactive) | 1.84 µM (inactive) | 2.45 µM (inactive) | 1.66 µM (inactive) | 2.04 µM (inactive) | 2.25 µM (inactive) | 4.99 µM (inactive) | 2.59 µM (inactive) |
| COC(=O)/C=c1/c2ccccc2n2c1c1ccccc1[n+]2C | 2.81 µM (inactive) | 3.86 µM (inactive) | 3.65 µM (inactive) | 2.58 µM (inactive) | 4.18 µM (inactive) | 6.41 µM (inactive) | 5.82 µM (inactive) | 4.2 µM (inactive) | 15.1 µM (inactive) | 1.26 µM (inactive) | 3.05 µM (inactive) | 3.56 µM (inactive) | 2.35 µM (inactive) | 4.27 µM (inactive) | 2.99 µM (inactive) | 2.77 µM (inactive) | 7.13 µM (inactive) | 3.3 µM (inactive) | 3.29 µM (inactive) | 3.08 µM (inactive) |
| CCOC(=O)C(NC(=O)c1ccccc1)(N1CCN(c2cc3c(cc2F)c(=O)c(C(=O)O)cn3CC)CC1)C(F)(F)F (stereo not given) | 31.3 µM (inactive) | 23.9 µM (inactive) | 32.9 µM (inactive) | 12.9 µM (inactive) | 24.5 µM (inactive) | 59.3 µM (inactive) | < 0.01 µM (active) | 29.2 µM (inactive) | 21.4 µM (inactive) | 17.1 µM (inactive) | 31.2 µM (inactive) | 38.4 µM (inactive) | 52.2 µM (inactive) | 15.6 µM (inactive) | 39.7 µM (inactive) | 25.2 µM (inactive) | 31.3 µM (inactive) | 21.8 µM (inactive) | 32.4 µM (inactive) | 17.1 µM (inactive) |
| COC(=O)C1CCC(=O)N1C(c1ccccc1)c1ccc(OC)c(OC)c1 (stereo not given) | > 100 µM (inactive) | > 100 µM (inactive) | > 100 µM (inactive) | > 100 µM (inactive) | > 100 µM (inactive) | > 100 µM (inactive) | > 100 µM (inactive) | > 100 µM (inactive) | > 100 µM (inactive) | > 100 µM (inactive) | > 100 µM (inactive) | > 100 µM (inactive) | > 100 µM (inactive) | > 100 µM (inactive) | > 100 µM (inactive) | > 100 µM (inactive) | > 100 µM (inactive) | > 10 µM (inactive) | > 100 µM (inactive) | > 100 µM (inactive) |
